“Also recorded” adds a separate entry of the source. Read-outs that look alike come from different tables or passages of the source.
Columns and labels:
[1] = assay type: in vivo
Src [2] = test: Urinary NTX and serum CTX levels as markers of Src inhibition; assay type: in vivo, human
Protocol: Src inhibition is known to reduce bone resorption, resulting in a decrease in urinary N-terminal cross-linking telopeptides of type I collagen (NTX) and serum C-terminal cross-linking telopeptides of type I collagen (CTX) ([Hannon et al, 2012]). Measurements of urinary NTX and serum CTX levels were performed before the first administration of AZD0424 and then weekly, at the same time of day, for up to 6 weeks following first administration as markers of Src inhibition. Samples were analysed at the Mellanby Centre for Bone Research in Sheffield using the Cobas e411 automated immunoassay (Roche Diagnostics, Mannheim, Germany) for serum CTX (ng ml^−1), and the Ortho Clinical Diagnostics (High Wycombe, UK) automated immunoassay for urine NTX. Urinary NTX measurements were reported as a ratio to urinary creatinine (nmol bone collagen equivalent (BCE)/mmol creatinine). Tumour biopsies for measurement of tumour biomarkers (p-Src, Ki67, p-PAX, and p-FAK) by immunohistochemical staining were optional.

advanced solid tumours = test: Disease response by RECIST 1.1; assay type: in vivo, human
Protocol: All patients receiving at least one dose of AZD0424 were evaluable for safety and efficacy analyses. Safety and tolerability of AZD0424 were assessed according to NCI CTCAE version 4.02. Patients who were withdrawn from treatment, or received less than 75% of the planned doses of AZD0424 during the first cycle, for reasons other than toxicity were not evaluable for dose review decisions and could be replaced. Disease response was assessed according to RECIST 1.1. For stable disease (SD), follow-up measurements had to meet the SD criteria at least once at least 6 weeks after the first dose of AZD0424.

Src [3] = system: Src; set-up: method as in Cancer Research UK Centre for Drug Development, 2015; details: ref Cancer Research UK Centre for Drug Development, 2015; cited from earlier work
[4] = human, in vivo
Protocol: (§1) Treatment cycles consisted of 28 days of continuous AZD0424 administration, and treatment was to be continued until disease progression, patient withdrawal or unacceptable toxicity.
(§2) All patients receiving at least one dose of AZD0424 were evaluable for safety and efficacy analyses. Safety and tolerability of AZD0424 were assessed according to NCI CTCAE version 4.02.

ABL1 = system: ABL1; set-up: method as in Cancer Research UK Centre for Drug Development, 2015; details: ref Cancer Research UK Centre for Drug Development, 2015; cited from earlier work
Yes = system: Yes; set-up: method as in Cancer Research UK Centre for Drug Development, 2015; details: ref Cancer Research UK Centre for Drug Development, 2015; cited from earlier work
Lck = system: Lck; set-up: method as in Cancer Research UK Centre for Drug Development, 2015; details: ref Cancer Research UK Centre for Drug Development, 2015; cited from earlier work
[5] = system: C-terminal Src tyrosine kinase (CSK); details: cited from earlier work
[6] = system: mouse fibroblasts engineered to over-express activated Src kinase (c-SRC 3T3); details: in vitro, pre-clinical; cited from earlier work
[7] = system: human umbilical vein endothelial cell cultures; details: in vitro, growth factor stimulated, pre-clinical; cited from earlier work
[8] = system: non-engineered human tumour cell lines; details: in vitro, diverse panel, pre-clinical; cited from earlier work
human tumour cells = details: in vitro, pre-clinical; cited from earlier work
paxillin = details: in vitro, pre-clinical; cited from earlier work
[9] = system: human Calu-6 lung tumour xenografts; details: rats, pre-clinical; cited from earlier work
[10] = system: c-Src 3T mouse xenografts; details: immunocompromised rats, subcutaneous, pre-clinical; cited from earlier work
[11] = rat, pre-clinical; cited from earlier work
[12] = dog, pre-clinical; cited from earlier work
clinical = details: human, plasma, oral
Protocol: (§3) Patients were fasted for 3 h prior to administration of AZD0424. Blood samples for analysis of plasma levels of AZD0424 were taken at the following time points: Cycle 1: Pre-dose and at 0.5, 1, 2, 4, 6 and 10 h post-dose on Day 1, then at 24 and 48 h and pre-dose on Days 8, 15 and 22; Cycle 2 (Day 29): Pre-dose and at 0.5, 1, 2, 4, 6, 10, 24 and 48 h. For patients receiving twice-daily AZD0424, the timing of samples was in relation to the morning dose of the drug. Plasma was isolated from centrifuged blood samples and stored at −80 °C prior to quantification of AZD0424 by a validated high performance liquid chromatography method with mass spectrometric detection. Plasma concentration/time data were analysed using non-compartmental methods.

VEGFR-2 = details: ref Cancer Research UK Centre for Drug Development, 2015; cited from earlier work
[13] = Plasma pharmacokinetics in patients;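 note: patient plasma drug levels measured by validated HPLC with mass spectrometric detection after a 3 h fast, PK parameters from non-compartmental analysis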
Protocol: as §3

[14] = Phase Ia dose escalation: safety and tolerability (NCI CTCAE v4.02, DLT, MTD)
Protocol: as §1, §2

breast cancer cell = system: breast cancer cell; set-up: method as in Srinivasan and Plattner, 2006; details: ref Srinivasan and Plattner, 2006; cited from earlier work
[15] = set-up: method as in Reddy et al, 2015; details: colorectal cancer patients; ref Reddy et al, 2015; cited from earlier work
[16] = set-up: method as in Baselga et al, 2010; details: ref Baselga et al, 2010; cited from earlier work

## CC(=O)N1CCN(CCOc2cc(OC(C)C)c3c(Nc4c(Cl)cnc5c4OCO5)ncnc3c2)CC1 [AZD0424, 7-[2-(4-Acetylpiperazin-1-yl)ethoxy]-N-(6-chloro[1,3]dioxolo[4,5-b]pyridin-7-yl)-5-isopropoxyquinazolin-4-amine]
[1]
  one tenth of the maximum tolerated dose in rat scaled to man: 17 mg
Src [2]; 5 mg, single patient
  change in CTX or NTX level: No significant post-administration changes
Src [2]; CTX and NTX
  dose giving clear evidence of Src target inhibition / inhibition of bone turnover: ≥ 20 mg per day
Src [2]; all cohorts other than 5 mg, by week 2, maintained to 7 weeks
  change in CTX and NTX: a fall relative to baseline values in both CTX and NTX
Src [2]; doses of more than 10 mg per day, saracatinib data ref Hannon et al, 2012
  percentage reductions in CTX and NTX compared with 50 mg per day of saracatinib: Greater percentage reductions
Advanced solid tumours; 22/41
  rate of PD: 53.7%
Advanced solid tumours; all cohorts
  patients with SD lasting >12 weeks: five
  patients with best response of PD: Twenty-two
Advanced solid tumours; all cohorts, 7 of 41 patients
  patients with best response of stable disease lasting at least 6 weeks: 17.1%
Advanced solid tumours; all cohorts, N=41
  complete response or partial response: No responses were observed; also recorded: No patients
Src [3]
  IC50: ~4 nM
[4]
  Alopecia, treatment-related AE, All grades patients: 17 (41) n (%)
  Alopecia, treatment-related AE, Grade 3–5 patients: 0 n (%)
  Anaemia, treatment-related AE, All grades patients: 7 (17) n (%)
  Anaemia, treatment-related AE, Grade 3–5 patients: 3 (7) n (%)
  Anorexia, treatment-related AE, All grades patients: 19 (46) n (%)
  Anorexia, treatment-related AE, Grade 3–5 patients: 1 (2) n (%)
  Aspartate aminotransferase increased, treatment-related AE, All grades patients: 5 (12) n (%)
  Aspartate aminotransferase increased, treatment-related AE, Grade 3–5 patients: 0 n (%)
  Cmin at which Grade 2 or 3 hypophosphataemia appeared more frequent: ≥ 0.2 µM
  Constipation, treatment-related AE, All grades patients: 6 (15) n (%)
  Constipation, treatment-related AE, Grade 3–5 patients: 1 (2) n (%)
  Diarrhoea, treatment-related AE, All grades patients: 12 (29) n (%)
  Diarrhoea, treatment-related AE, Grade 3–5 patients: 2 (5) n (%)
  Dysgeusia, treatment-related AE, All grades patients: 14 (34) n (%)
  Dysgeusia, treatment-related AE, Grade 3–5 patients: 0 n (%)
  Fatigue, treatment-related AE, All grades patients: 21(51) n (%)
  Fatigue, treatment-related AE, Grade 3–5 patients: 5 (12) n (%)
  Headache, treatment-related AE, All grades patients: 5 (12) n (%)
  Headache, treatment-related AE, Grade 3–5 patients: 0 n (%)
  Hypophosphataemia, treatment-related AE, All grades patients: 16 (39) n (%)
  Hypophosphataemia, treatment-related AE, Grade 3–5 patients: 8 (20) n (%)
  Lymphocyte count decreased, treatment-related AE, All grades patients: 10 (24) n (%)
  Lymphocyte count decreased, treatment-related AE, Grade 3–5 patients: 5 (12) n (%)
  Maculopapular rash, treatment-related AE, All grades patients: 9 (22) n (%)
  Maculopapular rash, treatment-related AE, Grade 3–5 patients: 2 (5) n (%)
  Nausea, treatment-related AE, All grades patients: 27 (66) n (%)
  Nausea, treatment-related AE, Grade 3–5 patients: 2 (5) n (%)
  Pruritis, treatment-related AE, All grades patients: 7 (17) n (%)
  Pruritis, treatment-related AE, Grade 3–5 patients: 0 n (%)
  Vomiting, treatment-related AE, All grades patients: 13 (32) n (%)
  Vomiting, treatment-related AE, Grade 3–5 patients: 1 (2) n (%)
  dose above which treatment-related AE episodes and Grade 3-5 AEs increased markedly: above 60 mg per day
  nausea, fatigue, anorexia and alopecia, each: patients with treatment-related AE: > 40%
  patients with AE of Grade 3 hypophosphataemia related to the drug: 19.5%
  patients with at least one AE possibly, probably or highly probably related to AZD0424: 92.7%
  patients with at least one AZD0424-related event Grade 3-5 in severity: 41.5%
  patients with decline in lymphocyte count: 68.3%
  patients with dose delays and/or alterations during the study: 63.4%
  protocol-defined RP2D: 80 mg
ABL1
  IC50: ~4 nM
Yes
  activity against Yes: additional activity
Lck
  activity against Lck: additional activity
[5]; ref Cancer Research UK Centre for Drug Development, 2015
  selectivity for Src-Abl1 kinases vs CSK: > 448 fold
[6]
  inhibition of proliferation: potent inhibition of proliferation
[7]
  inhibition of proliferation: inhibited proliferation
[8]
  inhibition of proliferation: generally poor
Human tumour cells
  inhibition of migration: potent inhibition of migration
paxillin
  inhibition of phosphorylation of paxillin: evidence of inhibition of phosphorylation
[9]
  anti-tumour growth effect: moderate anti-tumour growth effects
[10]
  inhibition of tumour growth: profound, dose-dependent inhibition of tumour growth
[11]
  dose limiting toxicity: gastrointestinal toxicity being dose limiting
  hypotension and reflex tachycardia: Hypotension and reflex tachycardia were also observed
[12]
  dose limiting toxicity: gastrointestinal toxicity being dose limiting
  hypotension and reflex tachycardia: Hypotension and reflex tachycardia were also observed
clinical
  Tmax: < 2 h
  half-life: 8.4 ± 2.8 h
clinical; 5 mg
  AUC(0-t): 0.624 µM·h
  Cmax: 0.0683 µM
  half-life: 6.7 h
clinical; 10 mg
  AUC(0-t): 1.57 µM·h
  Cmax: 0.21 µM
  half-life: 6.3 h
clinical; 20 mg
  Cmax: 0.59 ± 0.3 µM
  half-life: 6.8 ± 2.6 h
clinical; 40 mg
  AUC(0-t): 6.81 ± 3.46 µM·h
  Cmax: 0.715 ± 0.38 µM
  half-life: 10.5 ± 0.8 h
clinical; 60 mg
  AUC(0-t): 9.88 ± 1.77 µM·h
  Cmax: 1.38 ± 0.215 µM
  half-life: 8.2 ± 3.3 h
clinical; 80 mg
  AUC(0-t): 14.1 ± 5.12 µM·h
  Cmax: 1.67 ± 0.602 µM
  half-life: 9.4 ± 5 h
clinical; 120 mg
  AUC(0-t): 24.9 ± 12 µM·h
  Cmax: 2.65 ± 0.923 µM
  half-life: 7.8 ± 3.1 h
clinical; 150 mg
  AUC(0-t): 25.6 ± 4.15 µM·h
  Cmax: 4.11 ± 1.54 µM
  half-life: 7.8 ± 2.1 h
VEGFR-2
  selectivity for Src-Abl1 kinases vs VEGFR-2: > 933 fold
[13]; comparable doses, saracatinib data ref Baselga et al, 2010
  Cmax and AUC(0-24 h) compared with saracatinib: much higher for AZD0424 than saracatinib
[13]; o.d. dosing 5-150 mg
  dose dependence of Cmax and AUC: increased linearly with dose; also recorded: Linear, dose-dependent increases; also recorded: dose-dependent, linear increases
[13]; oral
  absorption and bioavailability: rapid absorption and high bioavailability
[14]; all cohorts
  deaths due to pneumonia considered possibly related to AZD0424: One
  patients who died within 4 weeks of the last administration: Four
[14]; o.d., continuous oral dosing, 28-day cycles
  maximum tolerated dose (MTD): 120 mg

## COc1cc(Nc2c(C#N)cnc3cc(OCCCN4CCN(C)CC4)c(OC)cc23)c(Cl)cc1Cl [bosutinib, reference compound]
[5]; ref Davis et al, 2011
  selectivity for SFKs over CSK: ~30 fold

## Cc1ccc(NC(=O)c2ccc(CN3CCN(C)CC3)cc2)cc1Nc1nccc(-c2cccnc2)n1 [imatinib]
Breast cancer cell
  inhibition of cell motility: markedly inhibits cell motility

## CN1CCN(CCOc2cc(OC3CCOCC3)c3c(Nc4c(Cl)ccc5c4OCO5)ncnc3c2)CC1 [saracatinib]
[15]
  rate of Grade 3 hypophosphataemia: 50%
[16]
  recommended phase II dose (RP2D): 175 mg

From paper PMC5877436, “A first-in-human phase I study to determine the maximum tolerated dose of the oral Src/ABL inhibitor AZD0424” (British Journal of Cancer, 2018)
